“Also recorded” adds a separate entry of the source.
Columns and labels:
[1] = system: unilateral IRI-AKI; assay: Unilateral IRI-AKI (left renal pedicle clamping 28 min with contralateral nephrectomy) in mice pretreated with PHAD; assay type: in vivo, mouse (male BALB/c)
Description: (§1) A blinded, randomized controlled study in mice, assessed the efficacy of intravenous 3D 6-Acyl phosphorylated hexa-acyl disaccharide (PHAD, a de novo ultrapure synthetic toll-like receptor 4 agonist), to protect against IRI-AKI. Two cohorts of male BALB/c mice received intraperitoneal vehicle or PHAD (10, 20, or 40 μg); or intravenous vehicle or PHAD (2, 20, or 200 μg) at 48 and 24 hours prior to unilateral renal pedicle clamping and simultaneous contralateral nephrectomy (unilateral IRI-AKI). In a separate cohort, mice were treated with vehicle or 200 μg of PHAD followed by bilateral IRI-AKI. Mice were monitored for 3 days after reperfusion and euthanized.
(§2) Kidney function was assessed by blood urea nitrogen (BUN) and serum creatinine measurements. Kidney tubular injury was assessed by semi-quantitative analysis of tubular morphology on PAS-stained kidney sections, and kidney mRNA quantification of injury (N-Gal, Kim-1 and HO-1) and inflammation (IL-6, IL-1b and TNF-α) using qRT-PCR technique. Additional studies were conducted using immunohistochemistry to quantify Kim-1 and F4/80 protein to assess kidney injury and macrophages, respectively. […] Histological injury and N-Gal mRNA were lower, and IL-1b mRNA higher in 200 μg 3D 6-Acyl PHAD treated mice.
(§3) Ischemia Reperfusion Induced Acute Kidney Injury. Male BALB/c mice, 10- to 11-weeks old (22 to 25 g) were purchased from Charles River (Hollister, CA), and were allowed to acclimate for one week prior to studies. IRI-AKI surgery was performed under ketamine/xylazine anesthesia (120 mg/kg [3 mg ketamine], 12 mg/kg [0.3 mg] xylazine) administered in 100 μl sterile saline by intraperitoneal (IP) injection. Mice underwent two types of surgery to induce IRI-AKI. Unilateral IRI-AKI with contralateral nephrectomy (unilateral IRI), and in separate cohorts, bilateral IRI-AKI. For unilateral IRI, the mouse was placed prone on a heat pad set to 37° C., and incisions were made in the muscle and skin to exteriorize the right kidney for nephrectomy. The adrenal gland was displaced from the kidney, and 5-0 silk suture (Ethicon, LA53G) was tied around the renal artery, vein, and ureter with a double surgical knot, before the kidney was removed by cutting distally to the knot. The left kidney was then exteriorized, and fat and connective tissue were dissected from the renal pedicle to expose the renal artery and vein. A vascular clamp (Roboz, cat #RS-5459) was applied to the renal vasculature for 28 minutes. The kidney was tucked back under the skin and the mouse was kept warm on the heat pad during the 28 minutes of ischemia time. For bilateral IRI-AKI, mice underwent bilateral renal artery ischemia for 24 minutes without nephrectomy. Successful ischemia was confirmed by a dark purple appearance of the kidney prior to clamp removal, and successful reperfusion was confirmed by a return to the normal pink color of the kidney within 1-2 min of clamp removal. Upon removing the vascular clamp, the muscle wall was closed with 6-0 absorbable suture (Ethicon, J492G) followed by skin closure with 7 mm wound clips (Roboz, RS-9255, RS-9250). Upon skin closure, mice received 0.5 ml of warm sterile saline subcutaneous (SQ) immediately after surgery, and at 24 hours after surgery. Analgesia was provided with buprenorphine SQ immediately after surgery and every 12 hours for 3 days. Sham operated mice underwent the same surgical approaches (for unilateral IRI-AKI, they underwent right nephrectomy, but the left renal pedicle was not clamped, and for bilateral IRI-AKI, both kidneys were exteriorized but the renal pedicles were not clamped). Blood was collected at baseline (prior to injury), and days 1 and 3 after injury by submandibular vein puncture into a lithium-heparin coated microcuvette tubes, and plasma frozen at −80° C. for blood urea nitrogen (BUN) and creatinine assays. […]

[2] = system: bilateral IRI-AKI; assay: Bilateral IRI-AKI (bilateral renal pedicle clamping 24 min) in mice pretreated with PHAD; assay type: in vivo, mouse (male BALB/c)
Description: as §1, §2, §3

[3] = IV PHAD 2, 20, 200 μg/mouse 48 and 24 h before injury, vs vehicle, post-injury day 1 and 3 (FIG. 1A)
[4] = IV PHAD 200 μg/mouse 48 and 24 h before injury, 24 and 72 hours after bilateral IRI-AKI (FIG. 2A)
[5] = IV PHAD 200 μg/mouse vs vehicle, Day 3 (FIG. 2F)
[6] = IV PHAD 200 μg/mouse vs vehicle, Day 3 (FIG. 3)

In the case of CCCCCCCCCCCCCC(=O)OC(CCCCCCCCCCC)CC(=O)NC1C(O)OC(COC2OC(CO)C(OP(=O)(O)O)C(OC(=O)CC(CCCCCCCCCCC)OC(=O)CCCCCCCCCCCCC)C2NC(=O)CC(CCCCCCCCCCC)OC(=O)CCCCCCCCCCCCC)C(O)C1O.N (stereo not shown) [PHAD, monophosphoryl hexa-acyl Lipid A, 3-Deacyl 6-acyl phosphorylated hexa-acyl disaccharide], the Histological injury ([1]; 200 μg (Example 1)) was “lower”, the “IL-1b mRNA” value ([1]; 200 μg (Example 1)) was “higher” and the “renal Kim-1 mRNA expression (qRT-PCR)” value ([1]; 200 μg PHAD, Day 3 (FIG. 1E)) was “no reduction”. For the same compound, the “renal N-Gal mRNA expression (qRT-PCR)” value ([1]; 200 μg PHAD, Day 3 (FIG. 1E)) was “reduction in expression”, the “renal N-Gal mRNA expression (qRT-PCR)” value ([1]; 200 μg PHAD, Day 3 (FIG. 1E), listed as 3D 6-Acyl PHAD) was “lower” and the “survival compared with the vehicle control group” value ([1]; 2 and 20 μg pretreatment dose (FIG. 1D)) was “more mice survived”. The BUN levels [1, 3] was “reduced elevations”, the creatinine levels [1, 3] was “reduced elevations” and the “renal IL-1β mRNA (qRT-PCR)” value ([1]; IV PHAD 2, 20, 200 μg/mouse vs vehicle control (FIG. 1E)) was “dose-dependent increase”. The 3-day survival ([1]; IV PHAD 2, 20, 200 μg/mouse vs vehicle, log-rank test (FIG. 1D)) was “no significant improvement in survival”, the “tubular injury in the cortex and OSOM (PAS-stained sections)” value ([1]; IV PHAD, increasing doses, Day 3 after injury (FIGS. 1B, 1C)) was “reduced tubular injury” and the renal function ([1]; pretreatment with PHAD at 48 and 24 h before unilateral IRI-AKI (Example 1)) was “dose-dependent preservation of renal function”. For the same compound, the BUN levels [2, 4] was “reduced”, the creatinine levels [2, 4] was “reduced” and the 3-day survival ([2]; IV PHAD 200 μg/mouse vs vehicle (FIG. 6)) was “no difference in survival”. For the same compound, the “renal IL-1β mRNA (qRT-PCR)” value [2, 5] was “increased”, the “renal IL-6 mRNA (qRT-PCR)” value [2, 5] was “no differences” and the “renal Kim-1 mRNA (qRT-PCR)” value [2, 5] was “no differences”. The “renal N-Gal mRNA (qRT-PCR)” value [2, 5] was “lower levels”, the “renal Tnf-α mRNA (qRT-PCR)” value [2, 5] was “no differences” and the “F4/80 staining for renal macrophages” value [2, 6] was “no difference in F4/80 staining”. The “area of cells expressing Kim-1 protein (immunostaining), outer medulla” value [2, 6] was “significant reduction; also recorded: significantly reduced”, the “renal expression of Ho-1 mRNA (qRT-PCR)” value ([2]; IV PHAD 200 μg/mouse vs vehicle, Day 3 (FIG. 4A)) was “reduced” and the “renal Irf-1 mRNA (qRT-PCR)” value ([2]; IV PHAD 200 μg/mouse vs vehicle, Day 3 (FIG. 4B)) was “no differences in expression”. For the same compound, the “renal Ccl-2 mRNA (qRT-PCR)” value ([2]; IV PHAD 200 μg/mouse vs vehicle, Day 3 (FIG. 4C)) was “no differences in expression”, the “renal Ccl-3 mRNA (qRT-PCR)” value ([2]; IV PHAD 200 μg/mouse vs vehicle, Day 3 (FIG. 4D)) was “no differences in expression” and the “tubular injury (PAS-stained sections, outer stripe of outer medulla)” value ([2]; IV PHAD 200 μg/mouse, Day 3 (FIGS. 2B, 2D)) was “reduced tubular injury”. For the same compound, the “apoptosis (TUNEL, outer stripe of outer medulla)” value ([2]; IV PHAD 200 μg/mouse, Day 3 (FIGS. 2C, 2E)) was “reduced apoptosis”.
